Key:
Assay in all cases: split-luciferase competition binding
PRKCG (human) = PRKCG (human) (UniProt P05129); details: compound 10.0 µM
PDPK1 (human) = PDPK1 (human) (UniProt O15530); details: compound 10.0 µM
PRKACB (human) = PRKACB (human) (UniProt P22694); details: compound 10.0 µM
AURKB (human) = AURKB (human) (UniProt Q96GD4); details: compound 10.0 µM
AURKC (human) = AURKC (human) (UniProt Q9UQB9); details: compound 10.0 µM
PRKCE (human) = PRKCE (human) (UniProt Q02156); details: compound 10.0 µM
AKT2 (human) = AKT2 (human) (UniProt P31751); details: compound 10.0 µM
PKN1 (human) = PKN1 (human) (UniProt Q16512); details: compound 10.0 µM
PRKCD (human) = PRKCD (human) (UniProt Q05655); details: compound 10.0 µM
AURKA (human) = AURKA (human) (UniProt O14965); details: compound 10.0 µM
SGK3 (human) = SGK3 (human) (UniProt Q96BR1); details: compound 10.0 µM
PRKACA (mouse) = details: compound 10.0 µM; accession and sequence are those of the human protein
RPS6KA6 KD1 (human) = RPS6KA6 KD1 (human) (UniProt Q9UK32); details: compound 10.0 µM
RPS6KA3 KD1 (human) = RPS6KA3 KD1 (human) (UniProt P51812); details: compound 10.0 µM
AKT1 (human) = AKT1 (human) (UniProt P31749); details: compound 10.0 µM
PRKCQ (human) = PRKCQ (human) (UniProt Q04759); details: compound 10.0 µM
PRKCH (human) = PRKCH (human) (UniProt P24723); details: compound 10.0 µM
RPS6KA1 KD1 (human) = RPS6KA1 KD1 (human) (UniProt Q15418); details: compound 10.0 µM
PRKX (human) = PRKX (human) (UniProt P51817); details: compound 10.0 µM
RPS6KA5 KD1 (human) = RPS6KA5 KD1 (human) (UniProt O75582); details: compound 10.0 µM
PRKCI (human) = PRKCI (human) (UniProt P41743); details: compound 10.0 µM
RPS6KA2 KD1 (human) = RPS6KA2 KD1 (human) (UniProt Q15349); details: compound 10.0 µM
AKT3 (human) = AKT3 (human) (UniProt Q9Y243); details: compound 10.0 µM
STK32B (human) = STK32B (human) (UniProt Q9NY57); details: compound 10.0 µM
RPS6KA4 KD1 (human) = RPS6KA4 KD1 (human) (UniProt O75676); details: compound 10.0 µM
DMPK (human) = DMPK (human) (UniProt Q09013); details: compound 10.0 µM
SGK2 (human) = SGK2 (human) (UniProt Q9HBY8); details: compound 10.0 µM
Sequence of SGK2 (human) (Q9HBY8 whole entry, looked up): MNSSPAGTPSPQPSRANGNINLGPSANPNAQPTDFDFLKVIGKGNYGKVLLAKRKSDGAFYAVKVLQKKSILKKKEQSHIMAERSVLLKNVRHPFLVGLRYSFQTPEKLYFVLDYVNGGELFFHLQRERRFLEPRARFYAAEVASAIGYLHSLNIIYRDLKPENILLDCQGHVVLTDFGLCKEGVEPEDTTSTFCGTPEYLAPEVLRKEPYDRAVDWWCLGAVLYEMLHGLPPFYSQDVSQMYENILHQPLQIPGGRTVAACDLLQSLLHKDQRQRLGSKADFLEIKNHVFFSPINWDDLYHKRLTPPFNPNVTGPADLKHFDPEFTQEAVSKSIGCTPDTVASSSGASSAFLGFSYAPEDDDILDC

Sequence of AKT3 (human) (Q9Y243 whole entry, looked up): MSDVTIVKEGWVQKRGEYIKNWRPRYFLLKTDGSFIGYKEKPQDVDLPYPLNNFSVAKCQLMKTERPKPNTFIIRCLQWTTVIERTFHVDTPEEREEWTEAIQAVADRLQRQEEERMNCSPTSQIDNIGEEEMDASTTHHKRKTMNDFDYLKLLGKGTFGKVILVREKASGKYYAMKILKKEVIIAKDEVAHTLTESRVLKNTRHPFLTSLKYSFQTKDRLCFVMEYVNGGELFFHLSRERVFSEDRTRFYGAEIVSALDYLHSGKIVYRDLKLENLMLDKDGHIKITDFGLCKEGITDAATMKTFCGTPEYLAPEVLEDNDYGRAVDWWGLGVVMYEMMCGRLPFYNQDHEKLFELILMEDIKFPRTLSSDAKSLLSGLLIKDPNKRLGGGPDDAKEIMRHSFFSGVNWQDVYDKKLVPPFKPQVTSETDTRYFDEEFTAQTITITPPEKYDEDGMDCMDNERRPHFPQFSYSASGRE
Sequence of PRKCQ (human) (Q04759 whole entry, looked up): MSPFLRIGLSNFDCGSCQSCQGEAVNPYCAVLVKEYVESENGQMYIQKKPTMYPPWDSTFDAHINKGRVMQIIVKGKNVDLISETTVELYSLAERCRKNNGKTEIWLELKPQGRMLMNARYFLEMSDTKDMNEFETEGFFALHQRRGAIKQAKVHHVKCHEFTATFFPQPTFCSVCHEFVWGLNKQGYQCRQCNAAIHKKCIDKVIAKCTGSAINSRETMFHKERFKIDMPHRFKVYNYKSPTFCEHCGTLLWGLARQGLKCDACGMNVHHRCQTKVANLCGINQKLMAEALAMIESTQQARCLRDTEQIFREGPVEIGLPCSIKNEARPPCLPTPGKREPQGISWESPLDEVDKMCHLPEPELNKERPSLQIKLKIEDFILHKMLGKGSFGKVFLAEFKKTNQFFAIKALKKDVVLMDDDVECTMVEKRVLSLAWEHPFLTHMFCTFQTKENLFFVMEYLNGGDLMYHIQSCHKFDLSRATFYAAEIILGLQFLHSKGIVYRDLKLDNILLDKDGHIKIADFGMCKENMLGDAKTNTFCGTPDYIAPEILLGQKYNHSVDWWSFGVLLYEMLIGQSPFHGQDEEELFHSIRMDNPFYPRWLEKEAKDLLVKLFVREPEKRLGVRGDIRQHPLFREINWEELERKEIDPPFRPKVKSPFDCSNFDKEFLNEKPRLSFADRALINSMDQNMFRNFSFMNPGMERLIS
Sequence of PKN1 (human) (Q16512 whole entry, looked up): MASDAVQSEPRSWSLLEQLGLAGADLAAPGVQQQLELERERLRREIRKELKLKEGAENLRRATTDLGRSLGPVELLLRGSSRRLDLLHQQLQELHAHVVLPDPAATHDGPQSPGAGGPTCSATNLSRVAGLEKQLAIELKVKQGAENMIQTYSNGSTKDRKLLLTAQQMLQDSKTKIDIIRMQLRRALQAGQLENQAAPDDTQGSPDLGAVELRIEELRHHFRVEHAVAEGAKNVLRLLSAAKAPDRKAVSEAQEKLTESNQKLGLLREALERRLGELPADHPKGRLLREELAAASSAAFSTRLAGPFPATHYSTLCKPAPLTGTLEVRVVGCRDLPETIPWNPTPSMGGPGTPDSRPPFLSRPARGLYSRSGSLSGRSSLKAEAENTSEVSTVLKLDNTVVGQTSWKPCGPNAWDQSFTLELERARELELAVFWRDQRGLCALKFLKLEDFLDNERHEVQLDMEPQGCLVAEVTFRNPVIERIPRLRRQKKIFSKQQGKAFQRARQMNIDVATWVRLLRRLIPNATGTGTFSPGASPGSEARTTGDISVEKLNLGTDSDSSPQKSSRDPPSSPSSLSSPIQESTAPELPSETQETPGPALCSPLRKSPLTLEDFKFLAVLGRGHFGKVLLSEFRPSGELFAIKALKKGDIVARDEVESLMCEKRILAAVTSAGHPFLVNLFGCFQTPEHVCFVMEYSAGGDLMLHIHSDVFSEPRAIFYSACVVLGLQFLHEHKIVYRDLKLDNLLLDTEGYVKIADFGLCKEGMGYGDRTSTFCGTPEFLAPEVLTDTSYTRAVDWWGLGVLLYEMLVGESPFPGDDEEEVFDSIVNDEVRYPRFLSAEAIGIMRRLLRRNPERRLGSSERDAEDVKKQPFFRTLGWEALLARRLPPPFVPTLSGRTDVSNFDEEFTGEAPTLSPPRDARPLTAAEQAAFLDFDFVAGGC
Sequence of DMPK (human) (Q09013 whole entry, looked up): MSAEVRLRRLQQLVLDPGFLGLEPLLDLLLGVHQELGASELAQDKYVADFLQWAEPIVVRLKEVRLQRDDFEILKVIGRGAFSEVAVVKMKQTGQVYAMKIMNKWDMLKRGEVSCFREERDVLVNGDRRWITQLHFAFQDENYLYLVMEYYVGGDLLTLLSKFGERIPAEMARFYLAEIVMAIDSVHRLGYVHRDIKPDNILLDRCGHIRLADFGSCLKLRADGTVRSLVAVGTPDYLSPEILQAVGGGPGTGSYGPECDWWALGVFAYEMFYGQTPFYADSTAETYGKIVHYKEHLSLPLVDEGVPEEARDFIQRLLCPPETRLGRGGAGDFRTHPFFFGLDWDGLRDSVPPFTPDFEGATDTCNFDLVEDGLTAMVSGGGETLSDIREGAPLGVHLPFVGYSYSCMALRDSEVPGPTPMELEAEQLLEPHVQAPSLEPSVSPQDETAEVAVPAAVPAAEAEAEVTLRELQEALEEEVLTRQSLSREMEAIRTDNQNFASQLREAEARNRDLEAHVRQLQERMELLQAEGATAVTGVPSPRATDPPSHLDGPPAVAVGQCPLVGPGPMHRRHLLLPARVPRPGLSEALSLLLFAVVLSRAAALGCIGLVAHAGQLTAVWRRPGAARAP
Sequence of PRKX (human) (P51817 whole entry, looked up): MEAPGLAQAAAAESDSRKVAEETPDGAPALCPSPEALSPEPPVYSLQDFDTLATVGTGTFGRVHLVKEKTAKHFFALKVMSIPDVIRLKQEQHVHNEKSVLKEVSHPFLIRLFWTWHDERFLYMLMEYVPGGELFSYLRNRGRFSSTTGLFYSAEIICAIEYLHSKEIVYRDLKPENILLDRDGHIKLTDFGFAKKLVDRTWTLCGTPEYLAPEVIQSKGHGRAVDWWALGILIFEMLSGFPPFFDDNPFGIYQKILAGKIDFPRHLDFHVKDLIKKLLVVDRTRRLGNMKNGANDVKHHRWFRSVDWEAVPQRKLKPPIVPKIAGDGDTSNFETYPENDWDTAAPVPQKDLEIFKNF
Sequence of PRKCI (human) (P41743 whole entry, looked up): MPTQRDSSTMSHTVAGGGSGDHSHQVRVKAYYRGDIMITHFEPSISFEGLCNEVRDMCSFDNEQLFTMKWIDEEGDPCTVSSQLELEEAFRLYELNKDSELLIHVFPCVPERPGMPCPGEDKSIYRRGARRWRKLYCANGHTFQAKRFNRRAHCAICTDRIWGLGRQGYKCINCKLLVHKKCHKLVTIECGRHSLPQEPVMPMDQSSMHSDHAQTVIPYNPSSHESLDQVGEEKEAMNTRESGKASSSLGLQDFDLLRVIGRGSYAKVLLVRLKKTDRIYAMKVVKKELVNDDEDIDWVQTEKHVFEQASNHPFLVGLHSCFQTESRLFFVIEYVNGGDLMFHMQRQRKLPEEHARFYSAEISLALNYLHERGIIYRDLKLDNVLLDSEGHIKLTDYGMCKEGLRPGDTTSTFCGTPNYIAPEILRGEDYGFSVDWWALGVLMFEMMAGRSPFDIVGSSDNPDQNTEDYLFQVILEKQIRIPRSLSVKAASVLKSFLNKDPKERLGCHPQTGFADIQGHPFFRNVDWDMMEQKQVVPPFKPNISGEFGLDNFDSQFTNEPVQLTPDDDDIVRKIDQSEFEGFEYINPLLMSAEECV

inhibition (PRKCG (human)) [%]	inhibition (PDPK1 (human)) [%]	inhibition (PRKACB (human)) [%]	inhibition (AURKB (human)) [%]	inhibition (AURKC (human)) [%]	inhibition (PRKCE (human)) [%]	inhibition (AKT2 (human)) [%]	inhibition (PKN1 (human)) [%]	inhibition (PRKCD (human)) [%]	inhibition (AURKA (human)) [%]	inhibition (SGK3 (human)) [%]	inhibition (PRKACA (mouse)) [%]	inhibition (RPS6KA6 KD1 (human)) [%]	inhibition (RPS6KA3 KD1 (human)) [%]	inhibition (AKT1 (human)) [%]	inhibition (PRKCQ (human)) [%]	inhibition (PRKCH (human)) [%]	inhibition (RPS6KA1 KD1 (human)) [%]	inhibition (PRKX (human)) [%]	inhibition (RPS6KA5 KD1 (human)) [%]	Structure (SMILES)	also measured
12	0	0	4	0	9	0	0	0	0	2	0	0	0	0	1	0	6	6	0	Cc1cc(I)ccc1Nc1c(C(=O)NOCC2CC2)cc(F)c(F)c1F	inhibition (PRKCI (human)): 0%; inhibition (RPS6KA2 KD1 (human)): 0%; inhibition (AKT3 (human)): 0%; inhibition (STK32B (human)): 0%; inhibition (RPS6KA4 KD1 (human)): 0%; inhibition (DMPK (human)): 20%; inhibition (SGK2 (human)): 0%
0	0	1	0	0	6	0	0	6	0	5	13	55	77	0	29	10	83	6	18	CC(C)[C@H](CO)Nc1nc(Nc2cc(N)cc(Cl)c2)c2ncn(C(C)C)c2n1	inhibition (PRKCI (human)): 0%; inhibition (RPS6KA2 KD1 (human)): 79%; inhibition (AKT3 (human)): 0%; inhibition (STK32B (human)): 20%; inhibition (RPS6KA4 KD1 (human)): 39%; inhibition (DMPK (human)): 7%; inhibition (SGK2 (human)): 2%
10	12	19	12	8	27	26	0	10	0	14	21	13	12	39	51	43	18	12	24	Fc1ccc(Cl)cc1-c1nc(Nc2ccncc2)c2nccnc2n1	inhibition (PRKCI (human)): 8%; inhibition (RPS6KA2 KD1 (human)): 5%; inhibition (AKT3 (human)): 35%; inhibition (STK32B (human)): 15%; inhibition (RPS6KA4 KD1 (human)): 8%; inhibition (DMPK (human)): 18%; inhibition (SGK2 (human)): 22%
2	0	4	9	18	2	0	1	0	7	7	2	0	8	0	7	11	0	7	0	COc1cc2ncnc(Nc3ccc(Cl)cc3F)c2cc1OC	inhibition (PRKCI (human)): 0%; inhibition (RPS6KA2 KD1 (human)): 0%; inhibition (AKT3 (human)): 0%; inhibition (STK32B (human)): 14%; inhibition (RPS6KA4 KD1 (human)): 2%; inhibition (DMPK (human)): 0%; inhibition (SGK2 (human)): 7%
0	0	0	14	5	0	0	6	0	0	0	19	0	0	0	15	0	0	53	0	O=S(=O)(c1cccc2c(O)nccc12)N1CCCNCC1	inhibition (PRKCI (human)): 37%; inhibition (RPS6KA2 KD1 (human)): 0%; inhibition (AKT3 (human)): 0%; inhibition (STK32B (human)): 0%; inhibition (RPS6KA4 KD1 (human)): 0%; inhibition (DMPK (human)): 0%; inhibition (SGK2 (human)): 0%
9	0	21	3	12	13	0	0	31	5	0	11	1	0	24	5	8	0	2	8	Cc1cc2nc3c(=O)[nH]c(=O)nc-3n(C)c2cc1C=O	inhibition (PRKCI (human)): 0%; inhibition (RPS6KA2 KD1 (human)): 8%; inhibition (AKT3 (human)): 0%; inhibition (STK32B (human)): 18%; inhibition (RPS6KA4 KD1 (human)): 0%; inhibition (DMPK (human)): 0%; inhibition (SGK2 (human)): 3%
0	0	2	0	0	0	0	0	0	0	0	0	24	0	0	0	11	0	0	0	NC(=O)c1sc(-c2ccsc2)cc1N	inhibition (PRKCI (human)): 0%; inhibition (RPS6KA2 KD1 (human)): 0%; inhibition (AKT3 (human)): 0%; inhibition (STK32B (human)): 0%; inhibition (RPS6KA4 KD1 (human)): 0%; inhibition (DMPK (human)): 0%; inhibition (SGK2 (human)): 0%
3	0	0	7	14	6	0	0	0	0	0	0	0	0	0	0	0	0	0	1	O=c1cc(N2CCOCC2)oc2c1ccc1ccccc12	inhibition (PRKCI (human)): 0%; inhibition (RPS6KA2 KD1 (human)): 0%; inhibition (AKT3 (human)): 0%; inhibition (STK32B (human)): 0%; inhibition (RPS6KA4 KD1 (human)): 0%; inhibition (DMPK (human)): 0%; inhibition (SGK2 (human)): 0%

Structure (SMILES)	inhibition (PRKCG (human)) [%]	inhibition (PDPK1 (human)) [%]	inhibition (PRKACB (human)) [%]	inhibition (AURKB (human)) [%]	inhibition (AURKC (human)) [%]	inhibition (PRKCE (human)) [%]	inhibition (AKT2 (human)) [%]	inhibition (PKN1 (human)) [%]	inhibition (PRKCD (human)) [%]	inhibition (AURKA (human)) [%]	inhibition (SGK3 (human)) [%]	inhibition (PRKACA (mouse)) [%]	inhibition (RPS6KA6 KD1 (human)) [%]	inhibition (RPS6KA3 KD1 (human)) [%]	inhibition (AKT1 (human)) [%]	inhibition (PRKCQ (human)) [%]	inhibition (PRKCH (human)) [%]	inhibition (RPS6KA1 KD1 (human)) [%]	inhibition (PRKX (human)) [%]	inhibition (RPS6KA5 KD1 (human)) [%]	also measured
O=C1NC(=O)c2c1c1c3ccccc3n3c1c1c2c2ccccc2n1C1CCC3O1	45	29	71	60	45	59	56	10	58	12	85	65	80	77	78	82	78	81	79	73	inhibition (PRKCI (human)): 28%; inhibition (RPS6KA2 KD1 (human)): 81%; inhibition (AKT3 (human)): 45%; inhibition (STK32B (human)): 12%; inhibition (RPS6KA4 KD1 (human)): 77%; inhibition (DMPK (human)): 37%; inhibition (SGK2 (human)): 87%
